Measurements: patent US10179161B2, “Compositions and methods for enhancing cardiac function in the neonate” (priority 2016, dated 2019)

Key:
[1] = tested on: supercomplex assembly (synthasomes); assay: synthasome levels by clear native immunoblot in adult heart mitochondria; assay type: biochemical, mice; settings: 0.5 mM; n=7
Experimental: Inhibition of CyPD should […] the assembly of the ETC into supercomplexes.
Adult heart mitochondria were used to show decreased supercomplex assembly after PTP opening and increased supercomplex assembly after PTP inhibition or deletion (FIG. 1). A: Mitochondrial permeability transition was induced by 60 μM free Ca^2+ (arrow) and was inhibited by 0.5 mM ADP or 200 nM CsA (top panel). Swelling, indicating PTP opening and a fall in absorbance, is reversible after the addition of 250 μM EGTA (arrow; bottom panel). […] The experimental conditions are summarized below the blot. […] Note that the ATP synthase IGA results a white reaction product, so the shading is correct. (N=4, * p≤0.05, ** p≤0.001 by T-test).

CyPD = settings: cited from earlier work
adult animals = settings: 10 mg/Kg IV; cited from earlier work

| Compound | Ca2+-induced PT decrease of synthasome levels [1] | K0.5 as a CyPD inhibitor (CyPD) [nM] | potency as a CyPD inhibitor relative to CsA (CyPD) | effects of ischemia reperfusion injury in the heart (adult animals) |
| --- | --- | --- | --- | --- |
| Nc1ncnc2c1ncn2[C@@H]1O[C@H](COP(=O)(O)OP(=O)(O)O)[C@@H](O)[C@H]1O [ADP] | inhibited | – | – | – |
| CC[C@H]1C[C@H](C)[C@@]2(NC1=O)O[C@@H](C[C@H](O)[C@@H](C)CC/C=C/C=C(\C)[C@@H]1C/C=C/C=C/[C@H](O)[C@H](C)[C@@H](O)[C@@H](CCC(C)=O)C(=O)N[C@@H](C(C)C)C(=O)N[C@@H](Cc3cccc(O)c3)C(=O)N3CCC[C@H](N3)C(=O)O1)[C@H](C)[C@H](O)[C@@H]2C [Sangliferin A, Sanglifehrin A] | – | 2 | more potent | – |
| Alisporivir | – | – | about as potent as CsA | ameliorate |
